# Measurements: patent publication EP1099690A1, “MONOCYCLIC $g(b)-LACTAM COMPOUNDS AND CHYMASE INHIBITORS CONTAINING THE SAME” (SHIONOGI & CO., LTD., priority 1998, dated 2000)
# How the values were obtained:
# human chymase = molecular target: T1, human chymase (Homo sapiens, UniProt P23946); test: Chymase inhibitory activity (Suc-Ala-Ala-Pro-Phe-pNA substrate, absorption 405 nm); type: biochemical; details: purified human chymase, 30 minutes at 37 °C preincubation, substrate 0.5 mM
# T1 sequence (P23946 22-247): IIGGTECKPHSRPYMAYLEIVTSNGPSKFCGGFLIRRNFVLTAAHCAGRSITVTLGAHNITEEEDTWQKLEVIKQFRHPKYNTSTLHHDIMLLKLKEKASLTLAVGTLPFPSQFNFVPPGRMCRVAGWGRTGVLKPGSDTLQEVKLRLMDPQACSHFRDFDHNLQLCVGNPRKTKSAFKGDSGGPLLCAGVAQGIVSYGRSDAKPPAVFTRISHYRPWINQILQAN
# Procedure: Compound (I) was dissolved in dimethylsulfoxide (DMSO) at 10^-2 M. Concentration of DMSO for activity measurement was 1 %.
# Compound (I) dissolved in DMSO and purified human chymase (Takai et al., Clinica Chimica Acta 265, 1997, 13-20) were added to a buffer (0.1M Tris-HCl, 1.8M NaCl pH8.0). After the mixture was treated for 30 minutes at 37 °C, Suc-Ala-Ala-Pro-Phe-pNA (BACHEM Feinchemikalien AG) was added at 0.5 mM as a substrate and the mixture was enzymatically reacted at 37 °C.
# After the reaction, the absorption intensity (405 nm) of the solution was measured to calculate the inhibitory rate.
# IL-1β = test: Cytokine production inhibitory activity, Concanavalin A stimulated mononuclear cells, ELISA: IL-1β; type: cell-based; details: IL-1β in culture supernatant, human mononuclear cells, Concanavalin A 5 µg/ml, forty-eight hours
# Procedure: (§1) After human blood obtained in heparinized tube was layered on the Filcoll - Hypaque mixed solution (density=1.114, mono-poly separation solution, Dainippon Pharmaceutical Co., Ltd.), it was centrifuged to prepare mononuclear cells. The obtained mononuclear cells were suspended in a medium (Macrophage-SFM:GIBCO) to adjust 2 X 10^6 cells/ml and cultivated in 48-well plates. Ten minutes later addition of the compound of the present invention, Concanavalin A (5 µg/ml) was added to stimulate cells. After forty-eight hours, IL-1β, IL-2, IL-4, IL-5, IL-6, TNF-α and IFNγ in the culture supernatant were quantified by ELISA method. The following kits were used for the quantification of these cytokines. • IL-1β: Quantikine(Trademark) Human IL-1β ELISA KIT (R&D system) • IL-2: Quantikine(Trademark) Human IL-2 ELISA KIT (R&D system) • IL-4: Quantikine(Trademark) Human IL-4 ELISA KIT (R&D system) • IL-5: Quantikine(Trademark) Human IL-5 ELISA KIT (R&D system) • IL-6: Quantikine(Trademark) Human IL-6 ELISA KIT (R&D system) • TNF-α: Quantikine(Trademark) Human TNF-α ELISA KIT (R&D system) • IFNγ: Quantikine(Trademark) Human IFNγ ELISA KIT (R&D system)
# IL-2 = test: Cytokine production inhibitory activity, Concanavalin A stimulated mononuclear cells, ELISA: IL-2; type: cell-based; details: IL-2 in culture supernatant, Concanavalin A 5 µg/ml, forty-eight hours
# Procedure: as §1
# IL-4 = test: Cytokine production inhibitory activity, Concanavalin A stimulated mononuclear cells, ELISA: IL-4; type: cell-based; details: IL-4 in culture supernatant, Concanavalin A 5 µg/ml, forty-eight hours
# Procedure: as §1
# IL-5 = test: Cytokine production inhibitory activity, Concanavalin A stimulated mononuclear cells, ELISA: IL-5; type: cell-based; details: IL-5 in culture supernatant, human mononuclear cells, Concanavalin A 5 µg/ml, forty-eight hours
# Procedure: as §1
# IL-6 = test: Cytokine production inhibitory activity, Concanavalin A stimulated mononuclear cells, ELISA: IL-6; type: cell-based; details: IL-6 in culture supernatant, Concanavalin A 5 µg/ml, forty-eight hours
# Procedure: as §1
# TNF-α = test: Cytokine production inhibitory activity, Concanavalin A stimulated mononuclear cells, ELISA: TNF-α; type: cell-based; details: TNF-α in culture supernatant, human mononuclear cells, Concanavalin A 5 µg/ml, forty-eight hours
# Procedure: as §1
# IFNγ = test: Cytokine production inhibitory activity, Concanavalin A stimulated mononuclear cells, ELISA: IFNγ; type: cell-based; details: IFNγ in culture supernatant, Concanavalin A 5 µg/ml, forty-eight hours
# Procedure: as §1
# Cathepsin G = molecular target: T2, Cathepsin G (Homo sapiens, UniProt P08311); test: Inhibitory activity on other serine proteases: Cathepsin G (sucAAPFpNA); type: biochemical; details: for IC50: Cathepsin G; for fold vs chymase: Cathepsin G IC50 compared with IC50 value of chymase
# T2 construct: human purulent sputum cathepsin (1.7 µg/ml in 1 mM HCl, 20 mM CaCl2, CALBIOCHEM); purchased CALBIOCHEM; host or cells: human purulent sputum
# T2 sequence (P08311 21-244): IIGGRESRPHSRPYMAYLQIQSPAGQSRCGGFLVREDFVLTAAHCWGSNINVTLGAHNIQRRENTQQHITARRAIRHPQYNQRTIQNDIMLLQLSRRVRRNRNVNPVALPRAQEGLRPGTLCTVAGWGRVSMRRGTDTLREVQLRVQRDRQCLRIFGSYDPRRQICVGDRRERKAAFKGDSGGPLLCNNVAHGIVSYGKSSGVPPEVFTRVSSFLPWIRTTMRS
# Procedure: The mixture of 10 µl of human purulent sputum cathepsin (1.7 µg/ml in 1 mM HCl, 20 mM CaCl2, CALBIOCHEM), 80 µl of buffer (50mM Tris-HCl, pH 7.5, 5.2 mM CaCl2) and 1 µl of the compound of the present invention (in DMSO) was incubated for 20 minutes at room temperature and for 10 minutes at 37 °C. The resultant mixture was reacted with 10 µl of a substrate (5 mM sucAAPFpNA in DMSO, BACHEM Feinchemikalien AG) for about 60 minutes at 37 °C and the absorption intensity (405 nm) was measured.
# (§2) The IC50 values of each serine protease are calculated and compared with IC50 value of chymase.
# [1] = molecular target: T3, human neutrophils elastase (Homo sapiens, UniProt P08246); test: Inhibitory activity on other serine proteases: Elastase (sucAAVpNA); type: biochemical; details: for IC50: elastase; for fold vs chymase: elastase IC50 compared with IC50 value of chymase
# T3 construct: human neutrophils elastase (0.02 mg/ml in 50 mM Tris-HCl, pH 7.0, 2 mM CaCl2, Athens research and technology); purchased Athens research and technology; host or cells: human neutrophils
# T3 sequence (P08246 30-267): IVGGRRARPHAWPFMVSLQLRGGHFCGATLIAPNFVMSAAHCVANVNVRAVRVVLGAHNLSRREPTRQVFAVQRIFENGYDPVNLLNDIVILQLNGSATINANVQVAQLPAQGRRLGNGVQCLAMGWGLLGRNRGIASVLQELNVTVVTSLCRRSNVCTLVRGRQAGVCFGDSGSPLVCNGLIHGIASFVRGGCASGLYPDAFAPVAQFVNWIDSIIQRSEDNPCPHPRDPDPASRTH
# Procedure: The mixture of 10 µl of human neutrophils elastase (0.02 mg/ml in 50 mM Tris-HCl, pH 7.0, 2 mM CaCl2, Athens research and technology), 80 µl of buffer (50mM Tris-HCl, pH 8.0, 2 mM CaCl2) and 1 µl of the compound of the present invention (in DMSO) was incubated for 20 minutes at room temperature and for 10 minutes at 37 °C. The resultant mixture was reacted with 10 µl of a substrate (5 mM sucAAVpNA (BACHEM Feinchemikalien AG) in 50 % DMSO) for about 30 minutes at 37 °C and the absorption intensity (405 nm) was measured.
# as §2
# bovine pancreas trypsin = molecular target: T4, bovine pancreas trypsin (Bos taurus, UniProt P00760); test: Inhibitory activity on other serine proteases: Trypsin (sucAAPRpNA); type: biochemical; details: for IC50: trypsin; for fold vs chymase: trypsin IC50 compared with IC50 value of chymase
# T4 construct: bovine pancreas trypsin (1.5 µg/ml in 1 mM HCl, 20 mM CaCl2, SIGMA); purchased SIGMA; host or cells: bovine pancreas
# T4 sequence (P00760 24-246): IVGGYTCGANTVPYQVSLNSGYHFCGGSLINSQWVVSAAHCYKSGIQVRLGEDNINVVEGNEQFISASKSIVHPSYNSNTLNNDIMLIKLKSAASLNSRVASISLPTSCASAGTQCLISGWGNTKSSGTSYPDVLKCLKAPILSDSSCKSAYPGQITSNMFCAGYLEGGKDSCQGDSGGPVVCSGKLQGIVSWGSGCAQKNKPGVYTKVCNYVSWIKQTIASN
# Procedure: The mixture of 10 µl of bovine pancreas trypsin (1.5 µg/ml in 1 mM HCl, 20 mM CaCl2, SIGMA), 80 µl of buffer (50mM Tris-HCl, 2 mM CaCl2 pH 8.0) and 1 µl of the compound of the present invention (in DMSO) was incubated for 20 minutes at room temperature and for 10 minutes at 37 °C. The resultant mixture was reacted with 10 µl of a substrate (5 mM sucAAPRpNA (BACHEM Feinchemikalien AG) in 50 % DMSO) for about 60 minutes at 37 °C and the absorption intensity (405 nm) was measured.
# as §2
# human plasma thrombin = molecular target: T5, human plasma thrombin (Homo sapiens, UniProt P00734); test: Inhibitory activity on other serine proteases: Thrombin (Chromozyme TH); type: biochemical; details: for IC50: thrombin; for fold vs chymase: thrombin IC50 compared with IC50 value of chymase
# T5 construct: human plasma thrombin (1 U/ml in 10 mM Mes, pH 6.0, 0.1 M NaCl, SIGMA); purchased SIGMA; host or cells: human plasma
# Procedure: The mixture of 10 µl of human plasma thrombin (1 U/ml in 10 mM Mes, pH 6.0, 0.1 M NaCl, SIGMA), 80 µl of buffer (0.1 M Tris-HCl, pH 8.0, 10 mM CaCl2, 0.1 M NaCl) and 1 µl of the compound of the present invention (in DMSO) was incubated for 20 minutes at room temperature and for 10 minutes at 37 °C. The resultant mixture was reacted with 10 µl of a substrate (5 mM Chromozyme TH (TosGPRpNA, Boehringer Mannheim) in H2O) for about 60 minutes at 37 °C and the absorption intensity (405 nm) was measured.
# as §2
# human serine plasmin = molecular target: T6, human serine plasmin (Homo sapiens, UniProt P00747); test: Inhibitory activity on other serine proteases: Plasmin (Chromozyme PL); type: biochemical; details: for IC50: plasmin; for fold vs chymase: plasmin IC50 compared with IC50 value of chymase
# T6 construct: purchased SIGMA
# Procedure: The mixture of 10 µl of human serine plasmin (0.1 mg/ml in 1 mM HCl, 20 mM CaCl2, SIGMA), 80 µl of buffer (50mM Tris-HCl, pH 7.5, 50 mM NaCl) and 1 µl of the compound of the present invention (in DMSO) was incubated for 20 minutes at room temperature and for 10 minutes at 37 °C. The resultant mixture was reacted with 10 µl of a substrate (5 mM Chromozyme PL(TosGPKpNA, Boehringer Mannheim) in H2O) for about 30 minutes at 37 °C and the absorption intensity (405 nm) was measured.
# as §2
# T6 sequence (P00747 581-810 limits assumed): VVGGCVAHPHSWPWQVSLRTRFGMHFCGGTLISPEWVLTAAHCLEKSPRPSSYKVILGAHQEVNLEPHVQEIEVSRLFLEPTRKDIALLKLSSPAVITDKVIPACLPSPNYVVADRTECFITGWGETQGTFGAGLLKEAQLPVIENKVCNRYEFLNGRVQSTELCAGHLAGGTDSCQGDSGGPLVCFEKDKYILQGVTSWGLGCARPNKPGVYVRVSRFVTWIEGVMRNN
# T6 sequence (P00747 98-580 partner limits assumed): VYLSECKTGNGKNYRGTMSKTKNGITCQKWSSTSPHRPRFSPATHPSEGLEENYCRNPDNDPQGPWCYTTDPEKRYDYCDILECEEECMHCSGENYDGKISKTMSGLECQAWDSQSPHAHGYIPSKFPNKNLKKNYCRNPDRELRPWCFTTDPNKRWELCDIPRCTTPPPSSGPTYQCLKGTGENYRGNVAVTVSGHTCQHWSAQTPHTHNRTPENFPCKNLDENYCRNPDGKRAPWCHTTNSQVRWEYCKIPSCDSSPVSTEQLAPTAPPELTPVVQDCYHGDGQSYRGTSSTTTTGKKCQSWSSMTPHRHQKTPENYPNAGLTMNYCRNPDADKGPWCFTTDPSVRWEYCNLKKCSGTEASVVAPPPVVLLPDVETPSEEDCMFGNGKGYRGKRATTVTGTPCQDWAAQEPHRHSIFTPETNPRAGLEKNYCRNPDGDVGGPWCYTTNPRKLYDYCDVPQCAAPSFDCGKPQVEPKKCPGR
smiles,measurement,setting,value
"CC(NC(=O)N1C(=O)C(Cc2ccccc2)C1Oc1ccc(C(=O)N2CCN(C)CC2)cc1)c1ccccc1 (stereo not shown) [Compound I-39, 3-Benzyl-2-[4-(4-methyl-piperazine-1-carbonyl)-phenoxy]-4-oxo-azetidine-1-carboxylic acid (1-phenyl-ethyl)-amide]",IC50,human chymase,0.00046 µM
same,IC50,IL-1β,2.7 µM
same,IC50,IL-2; Homo sapiens,2.7 µM
same,IC50,IL-4; Homo sapiens,11.7 µM
same,IC50,IL-5,6.5 µM
same,IC50,IL-6; Homo sapiens,6.4 µM
same,IC50,TNF-α,1.9 µM
same,IC50,IFNγ; Homo sapiens,12.1 µM
"CC(NC(=O)N1C(=O)C(Cc2ccccc2)C1Oc1ccc(C(=O)N2CCN(C)CC2)cc1)c1ccccc1 (stereo not shown) [Compound I-62, 3-Benzyl-2-[4-(4-methyl-piperazine-1-carbonyl)-phenoxy]-4-oxo-azetidine-1-carboxylic acid (1-phenyl-ethyl)-amide]",IC50,human chymase,0.00017 µM
same,IC50,IL-1β,11.3 µM
same,IC50,IL-2; human mononuclear cells,2.4 µM
same,IC50,IL-4; human mononuclear cells,20.2 µM
same,IC50,IL-5,13.9 µM
same,IC50,IL-6; human mononuclear cells,9.3 µM
same,IC50,TNF-α,6.8 µM
same,IC50,IFNγ; human mononuclear cells,17.1 µM
"CCOc1ccccc1CC1C(=O)N(C(=O)NC(c2ccccc2)c2ccccc2)C1Oc1ccc(C(=O)O)cc1 (stereo not shown) [Compound I-144, 4-[1-(Benzhydryl-carbamoyl)-3-(2-ethoxy-benzyl)-4-oxo-azetidin-2-yloxy]-benzoic acid]",IC50,human chymase,0.0031 µM
same,IC50,Cathepsin G,0.0354 µM
same,fold vs chymase,Cathepsin G,11
same,IC50,[1],> 100 µM
same,fold vs chymase,[1],>30000
same,IC50,bovine pancreas trypsin,25 µM
same,fold vs chymase,bovine pancreas trypsin,8000
same,IC50,human plasma thrombin,> 100 µM
same,fold vs chymase,human plasma thrombin,>30000
same,IC50,human serine plasmin,> 10 µM
same,fold vs chymase,human serine plasmin,>3000
CCOc1ccccc1C[C@@H]1C(=O)N(C(=O)NC(c2ccc(C)cc2)c2ccc(C)cc2)[C@H]1Oc1ccc(C(=O)O)cc1 [Compound I-158],IC50,human chymase,0.0082 µM
same,IC50,Cathepsin G,0.143 µM
same,fold vs chymase,Cathepsin G,17
same,IC50,[1],25 µM
same,fold vs chymase,[1],3000
same,IC50,bovine pancreas trypsin,6.2 µM
same,fold vs chymase,bovine pancreas trypsin,760
same,IC50,human plasma thrombin,> 100 µM
same,fold vs chymase,human plasma thrombin,>10000
same,IC50,human serine plasmin,> 100 µM
same,fold vs chymase,human serine plasmin,>10000
CCOc1ccccc1C[C@@H]1C(=O)N(C(=O)NC(c2ccc(F)cc2)c2ccc(F)cc2)[C@H]1Oc1ccc(C(=O)O)cc1 [Compound I-159],IC50,human chymase,0.0145 µM
CCOc1ccccc1C[C@@H]1C(=O)N(C(=O)NC(c2ccc(OC)cc2)c2ccc(OC)cc2)[C@H]1Oc1ccc(C(=O)O)cc1 [Compound I-160],IC50,human chymase,0.015 µM
CCCc1ccccc1C[C@@H]1C(=O)N(C(=O)NC(c2ccccc2)c2ccccc2)[C@H]1Oc1ccc(C(=O)O)cc1 [Compound I-161],IC50,human chymase,0.018 µM
CCC1(Cc2ccccc2)C(=O)N(C(=O)NC(C)c2ccccc2)C1Oc1ccc(C(=O)O)cc1 (stereo not shown) [Compound I-172],IC50,human chymase,0.115 µM
CCC1(Cc2ccccc2)C(=O)N(C(=O)NC(C)c2ccccc2)C1Oc1ccc(C(=O)N2CCN(C)CC2)cc1 (stereo not shown) [Compound I-173],IC50,human chymase,0.19 µM
